According to paper PMC3954981 (Bioorganic & medicinal chemistry, 2014):
Read-outs that look alike come from different tables or passages of the source.

How the values were obtained:
PAD1 [1] = molecular target: T1, PAD1 (Homo sapiens, UniProt Q9ULC6); experiment: Inactivation kinetics; format: biochemical; conditions: read-out: kinact/KI (apparent), PAD1
T1 sequence (Q9ULC6 1-663): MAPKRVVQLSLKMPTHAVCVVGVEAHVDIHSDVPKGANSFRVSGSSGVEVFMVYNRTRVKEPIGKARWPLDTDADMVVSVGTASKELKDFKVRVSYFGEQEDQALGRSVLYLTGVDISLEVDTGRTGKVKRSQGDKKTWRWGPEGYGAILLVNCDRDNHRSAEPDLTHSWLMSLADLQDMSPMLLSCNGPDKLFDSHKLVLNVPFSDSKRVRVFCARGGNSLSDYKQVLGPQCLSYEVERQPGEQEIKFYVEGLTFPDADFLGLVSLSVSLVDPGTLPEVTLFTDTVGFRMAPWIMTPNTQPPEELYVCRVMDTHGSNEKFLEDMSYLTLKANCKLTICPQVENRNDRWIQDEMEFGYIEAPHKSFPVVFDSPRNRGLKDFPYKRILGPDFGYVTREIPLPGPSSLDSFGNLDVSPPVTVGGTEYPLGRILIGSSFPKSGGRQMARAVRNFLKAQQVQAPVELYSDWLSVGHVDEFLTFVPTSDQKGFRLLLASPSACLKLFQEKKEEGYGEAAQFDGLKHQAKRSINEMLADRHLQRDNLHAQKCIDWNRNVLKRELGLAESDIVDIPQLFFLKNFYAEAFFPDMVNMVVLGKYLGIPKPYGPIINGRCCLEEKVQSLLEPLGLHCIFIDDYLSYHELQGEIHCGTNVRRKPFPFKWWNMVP

PAD2 [2] = molecular target: T2, PAD2 (Homo sapiens, UniProt Q9Y2J8); experiment: Gel-based competitive ABPP with RFA; format: binding; conditions: RFA 10 μM, PAD2 2 μM, inhibitor 0–50 μM
PAD4 [3] = molecular target: T3, PAD4 (Homo sapiens, UniProt Q9UM07); experiment: Substrate; format: biochemical; conditions: inactivator 0.5 μM; BAEE 2 mM and 10 mM
PAD4 [4] = molecular target: T3, PAD4; experiment: Irreversibility study; format: biochemical; conditions: for recovery of PAD4 enzymatic activity after dialysis: 100 μM compound, 1 h, dialysis overnight
WT-PAD4 = WT-PAD4 (Homo sapiens, UniProt Q9UM07); experiment: MALDI-MS analysis of inhibitor-treated enzyme; format: binding; conditions: 1:10 enzyme:inhibitor, 1 h, WT-PAD4 3 μM
PAD4 [5] = molecular target: T3, PAD4; experiment: Inactivation kinetics; format: biochemical
PADs 1, 2, 3, and 4 = experiment: Library screening, inhibition of the PADs described in words; format: biochemical, human; conditions: 10 μM, PADs 1–4
PAD2 [6] = molecular target: T2, PAD2; experiment: Inactivation kinetics; format: biochemical
PAD4 C645A = PAD4 C645A (Homo sapiens, UniProt Q9UM07, C645A); experiment: MALDI-MS analysis of inhibitor-treated enzyme; format: binding; conditions: 1:10 enzyme:inhibitor, 1 h, PAD4 C645A 5 μM
PAD2 [7] = molecular target: T2, PAD2; experiment: MALDI-MS analysis of inhibitor-treated enzyme; format: binding; conditions: 1:10 enzyme:inhibitor, 1 h, PAD2 3 μM
PAD3 [8] = molecular target: T4, PAD3 (Homo sapiens, UniProt Q9ULW8); experiment: Inactivation kinetics; format: biochemical; conditions: read-out: kinact/KI (apparent), PAD3
T4 sequence (Q9ULW8 1-664): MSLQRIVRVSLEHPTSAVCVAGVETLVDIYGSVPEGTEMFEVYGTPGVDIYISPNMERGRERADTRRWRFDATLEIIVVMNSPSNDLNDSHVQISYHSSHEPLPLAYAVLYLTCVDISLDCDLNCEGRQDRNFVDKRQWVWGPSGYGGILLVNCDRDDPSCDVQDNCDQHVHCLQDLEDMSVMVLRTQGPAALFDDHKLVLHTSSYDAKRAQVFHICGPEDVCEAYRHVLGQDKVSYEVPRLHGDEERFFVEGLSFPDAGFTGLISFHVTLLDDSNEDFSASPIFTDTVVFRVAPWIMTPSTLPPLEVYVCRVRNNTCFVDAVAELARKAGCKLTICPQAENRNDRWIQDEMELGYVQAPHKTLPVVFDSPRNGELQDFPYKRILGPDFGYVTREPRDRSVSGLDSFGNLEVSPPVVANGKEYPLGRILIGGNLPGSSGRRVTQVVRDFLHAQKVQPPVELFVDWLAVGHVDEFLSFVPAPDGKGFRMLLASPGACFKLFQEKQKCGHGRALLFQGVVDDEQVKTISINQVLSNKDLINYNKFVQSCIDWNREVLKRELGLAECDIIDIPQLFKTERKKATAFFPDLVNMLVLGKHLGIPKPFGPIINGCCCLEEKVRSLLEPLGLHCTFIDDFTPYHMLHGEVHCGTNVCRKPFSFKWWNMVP

PAD4 [9] = molecular target: T3, PAD4; experiment: Gel-based competitive ABPP with RFA; format: binding; conditions: RFA 10 μM, PAD4 2 μM, inhibitor 0–50 μM
NIH 3T3 cells = experiment: XTT cell viability assay; conditions: 10 μM, 3 days
U2OS cells = experiment: XTT cell viability assay; conditions: 10 μM, 3 days
PAD2 [10] = molecular target: T2, PAD2; experiment: Irreversibility study; format: biochemical; conditions: 170-fold excess of 17, dialyzed 20 h
PAD1 [11] = molecular target: T1, PAD1; experiment: Irreversibility study; format: biochemical; conditions: 170-fold excess of 17, dialyzed 20 h
PAD3 [12] = molecular target: T4, PAD3; experiment: Irreversibility study; format: biochemical; conditions: 170-fold excess of 17, dialyzed 20 h
PAD4 [13] = molecular target: T3, PAD4; conditions: cited from earlier work
PADs = conditions: second generation mechanism-based inactivator; cited from earlier work
[14] = read-out: kinact/KI (apparent), PAD4
[15] = read-out: kinact/KI (apparent), PAD2

T2 sequence (Q9Y2J8 whole entry): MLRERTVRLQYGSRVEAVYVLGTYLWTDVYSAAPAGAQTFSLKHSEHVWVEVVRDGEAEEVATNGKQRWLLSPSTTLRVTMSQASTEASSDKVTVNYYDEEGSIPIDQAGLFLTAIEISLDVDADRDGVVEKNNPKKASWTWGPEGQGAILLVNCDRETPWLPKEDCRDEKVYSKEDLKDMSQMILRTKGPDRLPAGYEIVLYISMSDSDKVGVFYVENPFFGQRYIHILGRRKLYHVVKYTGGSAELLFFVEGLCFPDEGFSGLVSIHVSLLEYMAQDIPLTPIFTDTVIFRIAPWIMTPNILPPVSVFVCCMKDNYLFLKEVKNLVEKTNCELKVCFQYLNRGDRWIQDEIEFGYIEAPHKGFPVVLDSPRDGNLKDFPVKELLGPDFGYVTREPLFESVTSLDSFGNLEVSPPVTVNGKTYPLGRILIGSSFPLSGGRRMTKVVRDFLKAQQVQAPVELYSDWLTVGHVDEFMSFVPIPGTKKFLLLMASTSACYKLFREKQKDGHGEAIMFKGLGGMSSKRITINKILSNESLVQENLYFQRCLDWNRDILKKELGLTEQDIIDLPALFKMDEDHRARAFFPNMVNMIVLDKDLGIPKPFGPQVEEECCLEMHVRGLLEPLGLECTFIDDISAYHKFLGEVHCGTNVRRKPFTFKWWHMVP
T3 sequence (Q9UM07 whole entry): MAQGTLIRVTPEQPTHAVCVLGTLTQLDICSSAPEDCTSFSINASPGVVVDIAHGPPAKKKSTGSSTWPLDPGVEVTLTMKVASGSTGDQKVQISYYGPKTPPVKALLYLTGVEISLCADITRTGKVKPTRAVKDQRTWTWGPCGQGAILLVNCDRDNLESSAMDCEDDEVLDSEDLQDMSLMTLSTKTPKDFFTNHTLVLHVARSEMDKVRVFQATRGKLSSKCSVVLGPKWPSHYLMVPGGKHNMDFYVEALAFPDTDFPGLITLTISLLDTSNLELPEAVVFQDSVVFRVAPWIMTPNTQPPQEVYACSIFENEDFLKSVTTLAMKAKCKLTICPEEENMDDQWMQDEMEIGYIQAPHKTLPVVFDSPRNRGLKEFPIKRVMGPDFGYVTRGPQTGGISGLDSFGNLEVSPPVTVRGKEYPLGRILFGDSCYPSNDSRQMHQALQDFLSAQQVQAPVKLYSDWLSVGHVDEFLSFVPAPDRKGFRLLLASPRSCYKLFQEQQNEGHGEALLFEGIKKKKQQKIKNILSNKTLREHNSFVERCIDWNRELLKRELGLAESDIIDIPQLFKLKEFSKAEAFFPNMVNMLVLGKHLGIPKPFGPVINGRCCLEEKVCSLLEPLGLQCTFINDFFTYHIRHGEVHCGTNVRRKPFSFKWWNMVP
Sequence of WT-PAD4 (Q9UM07 whole entry): as above
Sequence of PAD4 C645A (Q9UM07 whole entry C645A): as the sequence (Q9UM07 whole entry) above, with C645A counted along it

## NC1=CC(=O)c2ccc(-c3ccccn3)nc2C1=O [Compound 3]
PAD1 [1]
  kinact/KI: 53.3 M⁻¹ s⁻¹
PAD2 [2]
  labeling of PAD2 by RFA: prevent labeling
PAD4 [3]
  substrate protection against inactivation of PAD4: little substrate protection was observed
PAD4 [4]
  recovery of PAD4 enzymatic activity after dialysis: little to no activity is recovered
WT-PAD4
  mass shift of WT-PAD4 (Δ Da): 692 Da
PAD4 [5]; read-out: kinact/KI, PAD4
  kinact/KI: 95 M⁻¹ s⁻¹
PADs 1, 2, 3, and 4
  inhibition of the PADs (in words): strong inhibition
PAD2 [6]; read-out: kinact, PAD2
  kinact: 0.00117 s⁻¹
PAD2 [6]; read-out: kinact/KI, PAD2
  kinact/KI: 138 M⁻¹ s⁻¹
PAD4 C645A
  mass shift of PAD4 C645A (Δ Da): 737 Da
PAD2 [7]
  mass shift of PAD2: 324 Da
PAD3 [8]
  kinact/KI: 30 M⁻¹ s⁻¹
PAD4 [9]
  labeling of PAD4 by RFA: prevent labeling

## COC(=O)c1nc(C(C)=O)c2[nH]c3ccccc3c2c1C [Compound 4]
PADs 1, 2, 3, and 4
  inhibition of the PADs (in words): little to no inhibition

## COC(=O)c1cccc(-c2ccc3ccc(Br)c(O)c3n2)n1 [Compound 5]
PADs 1, 2, 3, and 4
  inhibition of the PADs (in words): no inhibition

## COC(=O)c1nc(C(=O)OC)c(NC(C)=O)c(-c2ccccc2Br)c1C [Compound 6]
PADs 1, 2, 3, and 4
  inhibition of the PADs (in words): little to no inhibition

## CCOC(=O)c1nc(C(=O)OCC)c(C(=O)OCC)c(-c2ccc(OC)c(OC)c2OCc2ccccc2)c1C [Compound 7]
PADs 1, 2, 3, and 4
  inhibition of the PADs (in words): little to no inhibition

## COC(=O)c1nc(C(=O)OC)c(N)c(-c2ccccc2Br)c1C [Compound 8]
PADs 1, 2, 3, and 4
  inhibition of the PADs (in words): little to no inhibition

## COC1=C(Br)C(=O)c2ncccc2C1=O [Compound 10]
PAD1 [1]
  kinact/KI: 60 M⁻¹ s⁻¹
PAD4 [4]
  recovery of PAD4 enzymatic activity after dialysis: little to no activity is recovered
PAD4 [5]; [14]
  kinact/KI: 81.7 M⁻¹ s⁻¹
PADs 1, 2, 3, and 4
  inhibition of the PADs (in words): strong inhibition
NIH 3T3 cells
  cells remaining viable, NIH 3T3: retain significant viability
PAD2 [6]; [15]
  kinact/KI: 63.3 M⁻¹ s⁻¹
PAD3 [8]
  kinact/KI: 25 M⁻¹ s⁻¹
U2OS cells
  cells remaining viable, U2OS: retain significant viability

## NC1=CC(=O)c2cccnc2C1=O [Compound 14]
PAD1 [1]
  kinact/KI: 76.7 M⁻¹ s⁻¹
PAD4 [4]
  recovery of PAD4 enzymatic activity after dialysis: little to no activity is recovered
PAD4 [5]; [14]
  kinact/KI: 93.3 M⁻¹ s⁻¹
PADs 1, 2, 3, and 4
  inhibition of the PADs (in words): strong inhibition
PAD2 [6]; [15]
  kinact/KI: 86.7 M⁻¹ s⁻¹
PAD3 [8]
  kinact/KI: 51.7 M⁻¹ s⁻¹

## NC1=CC(=O)c2ccc(-c3cccc(C(=O)O)n3)nc2C1=O [Compound 17]
PAD2 [10]
  PAD2 activity regained after dialysis: Little to no activity was regained
PAD2 [2]
  labeling of PAD2 by RFA: prevent labeling
PAD4 [4]
  recovery of PAD4 enzymatic activity after dialysis: little to no activity is recovered
PAD4 [4]; 170-fold excess of 17, dialyzed 20 h
  PAD4 activity regained after dialysis: Little to no activity was regained
PAD1 [11]
  PAD1 activity regained after dialysis: Little to no activity was regained
PADs 1, 2, 3, and 4
  inhibition of the PADs (in words): strong inhibition
NIH 3T3 cells
  cells remaining viable, NIH 3T3: retain significant viability
PAD3 [12]
  PAD3 activity regained after dialysis: Little to no activity was regained
U2OS cells
  cells remaining viable, U2OS: retain significant viability
PAD4 [9]
  labeling of PAD4 by RFA: prevent labeling

## NC1=C(N)C(=O)c2ccccc2C1=O [Compound 19]
PADs 1, 2, 3, and 4
  inhibition of the PADs: ~ 50%

## NC1=CC(=O)c2ccc(-c3cc(C(=O)O)ccc3N)nc2C1=O [Compound 22]
PADs 1, 2, 3, and 4
  inhibition of the PADs (in words): loss in potency

## O=C(O)c1cccc(-c2ccc3ccc(Br)c(OCc4ccccc4)c3n2)n1 [Compound 23]
PADs 1, 2, 3, and 4
  inhibition of the PADs (in words): no inhibition

## COC(=O)c1cc(-c2ccccc2)c(C(=O)OC)c(-c2ccc3ccccc3n2)n1 [Compound 24]
PADs 1, 2, 3, and 4
  inhibition of the PADs (in words): no inhibition

## COC(=O)c1nnc(C(=O)OC)c(-c2ccc3c([N+](=O)[O-])c(OC)ccc3n2)n1 [Compound 25]
PADs 1, 2, 3, and 4
  inhibition of the PADs (in words): no inhibition

## COC(=O)c1nnc(C(=O)OC)c(-c2ccc3cc(OC)ccc3n2)n1 [Compound 26]
PADs 1, 2, 3, and 4
  inhibition of the PADs (in words): no inhibition

## COc1ccc2ncccc2c1[N+](=O)[O-] [Compound 29]
PADs 1, 2, 3, and 4
  inhibition of the PADs (in words): no inhibition

## COc1ccc2nc(C#N)ccc2c1 [Compound 30]
PADs 1, 2, 3, and 4
  inhibition of the PADs (in words): no inhibition

## COC1=C(N)C(=O)c2nc(-c3nc(C(=O)O)c(C)c(-c4ccc(OC)c(OC)c4O)c3N)ccc2C1=O [Streptonigrin, reference compound]
PAD2 [2]
  labeling of PAD2 by RFA: decreased the labeling
WT-PAD4
  mass shift of WT-PAD4 (Δ Da): 710 Da
PAD4 C645A
  mass shift of PAD4 C645A (Δ Da): 924 Da
PAD2 [7]
  mass shift of PAD2: 469 Da
PAD4 [13]
  preferential inhibition of PAD4 versus PAD1: 119 fold
  preferential inhibition of PAD4 versus PAD2: 37 fold
  preferential inhibition of PAD4 versus PAD3: 126 fold
PAD4 [9]
  labeling of PAD4 by RFA: decreased the labeling

## CC(=O)N[C@H](C(=O)N[C@@H](CC(=O)O)C(=O)N[C@@H](CCCN=C(N)CF)C(N)=O)[C@@H](C)O [Thr-Asp-F-amidine (TDFA), Thr-Asp-F-amidine]
PADs
  kinact/KI: 26,000 M^−1min^−1
